Measured values from PubChem BioAssay (NCI).
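Cells were grown in 96-well plates and exposed to each compound for 48 hours at five concentrations; endpoints were interpolated linearly between bracketing concentrations, or set to the highest concentration if not reached. GI50 = concentration required for 50% inhibition of growth. At the TGI there is no net growth.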

How the values were obtained:
Assay in all cases: growth of human tumour cells (NCI), 48 h
[1] = test system: OVCAR-3 ovarian
[2] = test system: SR leukemia
[3] = test system: U251 CNS
[4] = test system: CAKI-1 renal
[5] = test system: RXF 393 renal
[6] = test system: K-562 leukemia
[7] = test system: NCI-H23 lung
[8] = test system: UACC-257 melanoma
[9] = test system: NCI-H226 lung
[10] = test system: HOP-62 NSCLC
[11] = test system: NCI-H522 lung
[12] = test system: DU-145 prostate
[13] = test system: HS 578T breast
[14] = test system: OVCAR-5 ovarian
[15] = test system: SN12C renal
[16] = test system: SK-MEL-2 melanoma
[17] = test system: SK-OV-3 ovarian
[18] = test system: LOX IMVI melanoma
[19] = test system: A549 NSCLC
[20] = test system: SNB-19 CNS
[21] = test system: MALME-3M melanoma
[22] = test system: IGROV1 ovarian
[23] = test system: NCI/ADR-RES ovarian
[24] = test system: SNB-75 CNS
[25] = test system: HT29 colon
[26] = test system: HCT-116 colon
[27] = test system: SW-620 colon
[28] = test system: KM12 colon
[29] = test system: SK-MEL-28 melanoma
[30] = test system: MCF7 breast
[31] = test system: OVCAR-4 ovarian
[32] = test system: SF-268 CNS
[33] = test system: MOLT-4 leukemia
[34] = test system: MDA-MB-435
[35] = test system: SF-539 CNS
[36] = test system: CCRF-CEM leukemia
[37] = test system: A498 renal
[38] = test system: 786-0 renal
[39] = test system: SF-295 CNS
[40] = test system: ACHN renal
[41] = test system: PC-3 prostate
[42] = test system: MDA-MB-231 breast
[43] = test system: COLO 205 colon
[44] = test system: HCC-2998 colon
[45] = test system: EKVX NSCLC
[46] = test system: OVCAR-8 ovarian
[47] = test system: TK-10 renal
[48] = test system: UO-31 renal
[49] = test system: RPMI-8226 leukemia
[50] = test system: BT-549 breast
[51] = test system: NCI-H460 lung
[52] = test system: UACC-62 melanoma
[53] = test system: T-47D breast
[54] = test system: HOP-92 NSCLC
[55] = test system: SK-MEL-5 melanoma
[56] = test system: HCT-15 colon

Compound: OCCCCC#Cc1ccccc1C#Cc1ccccc1C(F)(F)F
- GI50 [1]: 2.3 µM
- TGI [1]: 9.28 µM
- GI50 [2]: 0.475 µM
- TGI [2]: 2.97 µM
- GI50 [3]: 4.63 µM
- TGI [3]: 17.9 µM
- GI50 [4]: 5.37 µM
- TGI [4]: 17.9 µM
- GI50 [5]: 3.39 µM
- TGI [5]: 12.5 µM
- GI50 [6]: 1.09 µM
- TGI [6]: 13.9 µM
- GI50 [7]: 12.1 µM
- TGI [7]: 27.8 µM
- GI50 [8]: 17.7 µM
- TGI [8]: 31.9 µM
- GI50 [9]: 16.7 µM
- TGI [9]: 44.4 µM
- GI50 [10]: 8.46 µM
- TGI [10]: > 100 µM
- GI50 [11]: 9.13 µM
- TGI [11]: 22.7 µM
- GI50 [12]: 6.16 µM
- TGI [12]: 19 µM
- GI50 [13]: 11.8 µM
- TGI [13]: 37.1 µM
- GI50 [14]: 14.7 µM
- TGI [14]: 30.8 µM
- GI50 [15]: 12.2 µM
- TGI [15]: 26.5 µM
- GI50 [16]: 15.6 µM
- TGI [16]: 32.6 µM
- GI50 [17]: 17.7 µM
- TGI [17]: 32.7 µM
- GI50 [18]: 4.99 µM
- TGI [18]: 18.5 µM
- GI50 [19]: 4.36 µM
- TGI [19]: 16.6 µM
- GI50 [20]: 18 µM
- TGI [20]: 34.3 µM
- GI50 [21]: 14.7 µM
- TGI [21]: 37.5 µM
- GI50 [22]: 11.2 µM
- TGI [22]: 23.2 µM
- GI50 [23]: 4.2 µM
- TGI [23]: 16.2 µM
- GI50 [24]: 18.7 µM
- TGI [24]: 35.9 µM
- GI50 [25]: 4.01 µM
- TGI [25]: 16.5 µM
- GI50 [26]: 6.46 µM
- TGI [26]: 21.3 µM
- GI50 [27]: 4.35 µM
- TGI [27]: 16.4 µM
- GI50 [28]: 3.57 µM
- TGI [28]: 16.7 µM
- GI50 [29]: 13.2 µM
- TGI [29]: 28.5 µM
- GI50 [30]: 10.6 µM
- TGI [30]: 31.6 µM
- GI50 [31]: 18.4 µM
- TGI [31]: 36.4 µM
- GI50 [32]: 17.4 µM
- TGI [32]: 33.7 µM
- GI50 [33]: 2.63 µM
- TGI [33]: 12.9 µM
- GI50 [34]: 0.847 µM
- TGI [34]: 2.75 µM
- GI50 [35]: 12 µM
- TGI [35]: 25.2 µM
- GI50 [36]: 3.91 µM
- TGI [36]: 17.2 µM
- GI50 [37]: 5.79 µM
- TGI [37]: 19.8 µM
- GI50 [38]: 10.3 µM
- TGI [38]: 24.9 µM
- GI50 [39]: 2.34 µM
- TGI [39]: 6.7 µM
- GI50 [40]: 11.4 µM
- TGI [40]: 23.5 µM
- GI50 [41]: 8.77 µM
- TGI [41]: 21 µM
- GI50 [42]: 2.83 µM
- TGI [42]: 12.4 µM
- GI50 [43]: 17.7 µM
- TGI [43]: 33.9 µM
- GI50 [44]: 3.64 µM
- TGI [44]: 13.9 µM
- GI50 [45]: 12.7 µM
- TGI [45]: 26.8 µM
- GI50 [46]: 13.3 µM
- TGI [46]: 31.6 µM
- GI50 [47]: 18.6 µM
- TGI [47]: 47.1 µM
- GI50 [48]: 11.8 µM
- TGI [48]: 24.1 µM
- GI50 [49]: 3.84 µM
- TGI [49]: 26 µM
- GI50 [50]: 17.1 µM
- TGI [50]: 31.7 µM
- GI50 [51]: 17.9 µM
- TGI [51]: 34.7 µM
- GI50 [52]: 11.3 µM
- TGI [52]: 23.5 µM
- GI50 [53]: 19.8 µM
- TGI [53]: 47.2 µM
- GI50 [54]: 6.14 µM
- TGI [54]: 18.4 µM
- GI50 [55]: 11.6 µM
- TGI [55]: 24.4 µM
- GI50 [56]: 3.5 µM
- TGI [56]: 16 µM
